Where “and” joins values, the source holds several entries; their conditions need not be identical. Equal entries are not always repeated. Inconclusive results and toxic doses are left out. No stated cut-off is given here; in the data, active means T/C of 150% or more; inactive means T/C below 125%.
System: L1210 leukemia ip in BDF1 mice, survival T/C
Assay: NCI In Vivo Anticancer Drug Screen. Data for tumor model L1210 Leukemia (intraperitoneal) in B6D2F1 (BDF1) mice
Conditions: endpoint: mean survival time, higher = longer survival
How it was run: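 Tumor cells were implanted, animals were treated, and survival was followed. The result divides the treated measurement by the vehicle-control measurement.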

[1] = dose: 100.0 mg/kg/injection, schedule: Q01DX009 (ip), vehicle: Klucel (hydroxypropylcellulose) (HPC)
[2] = dose: 100.0 mg/kg/injection, schedule: Q04DX002 (ip), vehicle: Klucel (hydroxypropylcellulose) (HPC)
[3] = dose: 200.0 mg/kg/injection, schedule: Q01DX009 (ip), vehicle: Klucel (hydroxypropylcellulose) (HPC)
[4] = dose: 200.0 mg/kg/injection, schedule: Q04DX002 (ip), vehicle: Klucel (hydroxypropylcellulose) (HPC)
[5] = dose: 400.0 mg/kg/injection, schedule: Q04DX002 (ip), vehicle: Klucel (hydroxypropylcellulose) (HPC)
[6] = dose: 100.0 mg/kg/injection, schedule: Q04DX003 (ip), vehicle: saline
[7] = dose: 200.0 mg/kg/injection, schedule: Q04DX003 (ip), vehicle: saline
[8] = dose: 100.0 mg/kg/injection, schedule: Q04DX003 (ip), vehicle: Klucel (hydroxypropylcellulose) (HPC)
[9] = dose: 200.0 mg/kg/injection, schedule: Q04DX003 (ip), vehicle: Klucel (hydroxypropylcellulose) (HPC)
[10] = dose: 400.0 mg/kg/injection, schedule: Q04DX003 (ip), vehicle: Klucel (hydroxypropylcellulose) (HPC)
[11] = dose: 400.0 mg/kg/injection, schedule: Q01DX009 (ip), vehicle: Klucel (hydroxypropylcellulose) (HPC)
[12] = dose: 100.0 mg/kg/injection, schedule: Q01DX009 (ip), vehicle: saline with Tween-80
[13] = dose: 200.0 mg/kg/injection, schedule: Q01DX009 (ip), vehicle: saline with Tween-80

Measured: T/C

CSc1ccc(NC(=O)Sc2ccccc2C)cc1
inactive: dose: 75.0 mg/kg/injection, schedule: Q01DX001 (ip), vehicle: Klucel (hydroxypropylcellulose) (HPC) 95 % of control | dose: 75.0 mg/kg/injection, schedule: Q01DX009 (ip), vehicle: Klucel (hydroxypropylcellulose) (HPC) 93 % of control and 95 % of control | dose: 75.0 mg/kg/injection, schedule: Q04DX003 (ip), vehicle: Klucel (hydroxypropylcellulose) (HPC) 103 % of control | [1] 95 % of control and 103 % of control | [2] 98 % of control and 105 % of control | dose: 150.0 mg/kg/injection, schedule: Q01DX001 (ip), vehicle: Klucel (hydroxypropylcellulose) (HPC) 94 % of control | dose: 150.0 mg/kg/injection, schedule: Q01DX009 (ip), vehicle: Klucel (hydroxypropylcellulose) (HPC) 101 % of control | dose: 150.0 mg/kg/injection, schedule: Q04DX003 (ip), vehicle: Klucel (hydroxypropylcellulose) (HPC) 87 % of control | [3] 109 % of control | [4] 97 % of control | dose: 300.0 mg/kg/injection, schedule: Q01DX001 (ip), vehicle: Klucel (hydroxypropylcellulose) (HPC) 96 % of control | dose: 300.0 mg/kg/injection, schedule: Q01DX009 (ip), vehicle: Klucel (hydroxypropylcellulose) (HPC) 86 % of control and 88 % of control | dose: 300.0 mg/kg/injection, schedule: Q04DX003 (ip), vehicle: Klucel (hydroxypropylcellulose) (HPC) 91 % of control | [5] 93 % of control and 94 % of control

CN(C)C(=O)CCOc1cccc2ccccc12
inactive: dose: 75.0 mg/kg/injection, schedule: Q01DX001 (ip), vehicle: saline 100 % of control

COC(=O)Cc1cc(=O)c2cc(C)ccc2[nH]1
inactive: dose: 50.0 mg/kg/injection, schedule: Q01DX009 (ip), vehicle: acetone 94 % of control | dose: 100.0 mg/kg/injection, schedule: Q01DX009 (ip), vehicle: acetone 101 % of control | [6] 94 % of control | dose: 200.0 mg/kg/injection, schedule: Q01DX009 (ip), vehicle: acetone 97 % of control | [7] 94 % of control | dose: 400.0 mg/kg/injection, schedule: Q04DX003 (ip), vehicle: saline 94 % of control

CC1(CCN2CCC3(CC2)C(=O)NCN3c2ccccc2)Oc2ccccc2O1
inactive: [8] 104 % of control | [9] 111 % of control | [10] 93 % of control

Cn1ccnc1Oc1ccc(Cl)cc1
inactive: dose: 12.5 mg/kg/injection, schedule: Q04DX002 (ip), vehicle: Klucel (hydroxypropylcellulose) (HPC) 106 % of control | dose: 50.0 mg/kg/injection, schedule: Q04DX002 (ip), vehicle: Klucel (hydroxypropylcellulose) (HPC) 100 % of control

Nc1ccc(/C=C/c2ccncc2)cc1
inactive: [1] 92 % of control | [8] 101 % of control | [3] 92 % of control | [9] 104 % of control | [11] 102 % of control | [10] 96 % of control

COP(=O)(CN1C(=O)c2ccccc2C1=O)c1ccccc1 (stereo unspecified)
inactive: [2] 94 % of control | [4] 94 % of control | [5] 101 % of control

O=[N+]([O-])c1ccc(Oc2c(Cl)c(Cl)c(Cl)c(Cl)c2Cl)c([N+](=O)[O-])c1
inactive: dose: 222.0 mg/kg/injection, schedule: Q01DX Z (ip), vehicle: methylcellulose (MC) 95 % of control | dose: 333.0 mg/kg/injection, schedule: Q01DX Z (ip), vehicle: methylcellulose (MC) 94 % of control | dose: 500.0 mg/kg/injection, schedule: Q01DX Z (ip), vehicle: methylcellulose (MC) 93 % of control

O=[N+]([O-])c1ccccc1C/C=C/CCl
inactive: dose: 100.0 mg/kg/injection, schedule: Q01DX001 (ip), vehicle: carboxymethylcellulose (CMC) 100 % of control | dose: 200.0 mg/kg/injection, schedule: Q01DX001 (ip), vehicle: carboxymethylcellulose (CMC) 96 % of control | dose: 400.0 mg/kg/injection, schedule: Q01DX001 (ip), vehicle: carboxymethylcellulose (CMC) 94 % of control

Cc1ccc(C2(C#N)CC2)cc1
inactive: [12] 98 % of control | dose: 100.0 mg/kg/injection, schedule: Q04DX003 (ip), vehicle: saline with Tween-80 108 % of control | [13] 98 % of control | dose: 200.0 mg/kg/injection, schedule: Q04DX003 (ip), vehicle: saline with Tween-80 104 % of control | dose: 400.0 mg/kg/injection, schedule: Q01DX009 (ip), vehicle: saline with Tween-80 112 % of control | dose: 400.0 mg/kg/injection, schedule: Q04DX003 (ip), vehicle: saline with Tween-80 104 % of control

CC(C)(C)CC(C)(C)NS(=O)(=O)CCCBr
inactive: dose: 25.0 mg/kg/injection, schedule: Q04DX003 (ip), vehicle: saline with Tween-80 95 % of control | dose: 50.0 mg/kg/injection, schedule: Q04DX003 (ip), vehicle: saline with Tween-80 111 % of control

CCOC(=O)CC1CCC/C1=N/O (stereo unspecified)
inactive: dose: 75.0 mg/kg/injection, schedule: Q01DX009 (sc), vehicle: olive oil, sesame oil, peanut oil 98 % of control | dose: 150.0 mg/kg/injection, schedule: Q01DX009 (sc), vehicle: olive oil, sesame oil, peanut oil 94 % of control | dose: 300.0 mg/kg/injection, schedule: Q01DX009 (sc), vehicle: olive oil, sesame oil, peanut oil 100 % of control

CC1C(=O)CC(=O)C1=O (stereo unspecified)
inactive: dose: 50.0 mg/kg/injection, schedule: Q01DX009 (ip), vehicle: saline sonified 104 % of control | dose: 100.0 mg/kg/injection, schedule: Q01DX009 (ip), vehicle: saline sonified 117 % of control | [6] 100 % of control | dose: 200.0 mg/kg/injection, schedule: Q01DX009 (ip), vehicle: saline sonified 104 % of control | [7] 100 % of control

CCOC(=O)COc1ccc(Cl)cc1C(=O)OCC
inactive: dose: 100.0 mg/kg/injection, schedule: Q04DX002 (sc), vehicle: olive oil, sesame oil, peanut oil 105 % of control | dose: 200.0 mg/kg/injection, schedule: Q04DX002 (sc), vehicle: olive oil, sesame oil, peanut oil 118 % of control | dose: 400.0 mg/kg/injection, schedule: Q04DX002 (sc), vehicle: olive oil, sesame oil, peanut oil 111 % of control

CCCC(C(=O)O)(c1ccccc1)c1ccccc1
inactive: dose: 100.0 mg/kg/injection, schedule: Q04DX002 (ip), vehicle: gum acacia 96 % of control | dose: 200.0 mg/kg/injection, schedule: Q04DX002 (ip), vehicle: gum acacia 104 % of control

C[C@]12CC[C@@H]3c4ccc(O)cc4CC[C@H]3[C@@H]1CC[C@@H]2O
inactive: dose: 500.0 mg/kg/injection, schedule: Q01DX Z (sc), vehicle: water 93 % of control | dose: 1000.0 mg/kg/injection, schedule: Q01DX Z (sc), vehicle: water 90 % of control

CC(C)/C=N/N=C(N)N
inactive: dose: 120.0 mg/kg/injection, schedule: Q01DX Z (oral), vehicle: saline 113 % of control | dose: 240.0 mg/kg/injection, schedule: Q01DX Z (oral), vehicle: saline 104 % of control

CCCCOP(=O)(OCCCC)c1ccccc1OC
inactive: dose: 25.0 mg/kg/injection, schedule: Q04DX002 (ip), vehicle: saline with Tween-80 99 % of control | dose: 50.0 mg/kg/injection, schedule: Q04DX002 (ip), vehicle: saline with Tween-80 99 % of control | dose: 100.0 mg/kg/injection, schedule: Q04DX002 (ip), vehicle: saline with Tween-80 96 % of control and 89 % of control

CCCCCCCCCCCC[N+](C)(C)C(C)Cc1ccccc1 (stereo unspecified)
inactive: dose: 10.0 mg/kg/injection, schedule: Q01DX001 (ip), vehicle: saline 98 % of control | dose: 20.0 mg/kg/injection, schedule: Q01DX001 (ip), vehicle: saline 98 % of control

Cc1ccc(S(=O)(=O)NC(CSCc2ccccc2)C(=O)O)cc1 (stereo unspecified)
inactive: [12] 92 % of control | [13] 101 % of control

CCOC(OCC)c1cc(=O)[nH]c(N)n1
inactive: [1] 101 % of control | [3] 97 % of control | [11] 96 % of control
